Residues, ends and D or L forms follow the SMILES beside them.
T1: Solute carrier organic anion transporter family member 1C1 (Homo sapiens, UniProt Q9NYB5)
T1 sequence (Q9NYB5 whole entry): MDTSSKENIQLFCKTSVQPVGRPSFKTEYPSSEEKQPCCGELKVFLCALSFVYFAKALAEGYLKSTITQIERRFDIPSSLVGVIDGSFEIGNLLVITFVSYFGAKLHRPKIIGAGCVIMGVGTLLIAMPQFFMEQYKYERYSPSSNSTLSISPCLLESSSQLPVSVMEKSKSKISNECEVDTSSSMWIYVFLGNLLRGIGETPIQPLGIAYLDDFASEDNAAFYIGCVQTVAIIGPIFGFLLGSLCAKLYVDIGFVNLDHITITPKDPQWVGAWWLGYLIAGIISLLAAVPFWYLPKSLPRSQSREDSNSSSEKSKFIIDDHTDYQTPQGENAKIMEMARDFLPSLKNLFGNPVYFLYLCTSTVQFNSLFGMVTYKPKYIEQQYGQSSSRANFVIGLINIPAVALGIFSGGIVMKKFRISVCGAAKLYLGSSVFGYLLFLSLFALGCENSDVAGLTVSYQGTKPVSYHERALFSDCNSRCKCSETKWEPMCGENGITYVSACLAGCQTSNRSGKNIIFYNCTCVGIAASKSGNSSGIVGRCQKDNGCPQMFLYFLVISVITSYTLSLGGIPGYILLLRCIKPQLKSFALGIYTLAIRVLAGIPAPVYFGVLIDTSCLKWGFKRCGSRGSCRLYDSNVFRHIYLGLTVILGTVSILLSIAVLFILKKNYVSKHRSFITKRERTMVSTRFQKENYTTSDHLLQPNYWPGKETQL


Biological target: T1, Solute carrier organic anion transporter family member 1C1
Assay: (§1) TP_TRANSPORTER: uptake in OATP-F-expressing CHO cells
Assay type: functional, cell-based
Conditions: hamster

Molecule | Activity
C=C[C@H]1C[N+]2(C)CC[C@H]1C[C@H]2[C@H](O)c1ccnc2ccc(OC)cc12 | is not a substrate [-]
CC1(C)SSC(C)(C)[C@@H](NC(=O)[C@@H](N)Cc2ccc(O)cc2)C(=O)NCC(=O)N[C@@H](Cc2ccccc2)C(=O)N[C@H]1C(=O)O | is not a substrate [-]
CC(C)C[C@@H]1NC(=O)[C@@H](C(C)C)NC(=O)[C@@H]2CCCN2C(=O)[C@@H](CC(=O)O)NC(=O)[C@@H](Cc2c[nH]c3ccccc23)NC1=O [BQ-123] (HELM PEPTIDE1{L.[dW].[dD].P.[dV]}$PEPTIDE1,PEPTIDE1,1:R1-5:R2$$$V2.0) | is not a substrate [-]
CC(C)[C@H](NC(=O)[C@H](CCC(=O)O)NC(=O)[C@H](Cc1ccccc1)NC(=O)[C@@H](C)NC(=O)[C@@H](N)Cc1ccc(O)cc1)C(=O)N[C@H](C(=O)NCC(N)=O)C(C)C [DELTORPHIN II] | is not a substrate [-]
CCCCC[C@H](O)/C=C/[C@H]1[C@H](O)CC(=O)[C@@H]1C/C=C\CCCC(=O)O [DINOPROSTONE] | is not a substrate [-]
C[C@]12CC[C@@H]3c4ccc(O)cc4CC[C@H]3[C@@H]1CC[C@@H]2O[C@@H]1O[C@H](C(=O)O)[C@@H](O)[C@H](O)[C@H]1O [ESTRADIOL 17B GLUCURONIDE] | substrate [+]
C[C@]12CC[C@@H]3c4ccc(OS(=O)(=O)O)cc4CC[C@H]3[C@@H]1CCC2=O [ESTRONE SULFURIC ACID] | substrate [+]
C[C@H](CCC(=O)NCC(=O)O)[C@H]1CC[C@H]2[C@@H]3[C@H](O)C[C@@H]4C[C@H](O)CC[C@]4(C)[C@H]3C[C@H](O)[C@]12C [GLYCOCHOLIC ACID] | is not a substrate [-]
CCCCC/C=C\C\C=C/C=C/C=C/[C@@H](SC[C@@H](NC(=O)CC[C@H](N)C(=O)O)C(=O)NCC(=O)O)[C@@H](O)CCCC(=O)O [LEUKOTRIEN C4] | is not a substrate [-]
N[C@@H](Cc1cc(I)c(Oc2ccc(O)c(I)c2)c(I)c1)C(=O)O [LIOTHYRONINE] | substrate [+]
CN(Cc1cnc2nc(N)nc(N)c2n1)c1ccc(C(=O)N[C@@H](CCC(=O)O)C(=O)O)cc1 [METHOTREXATE] | is not a substrate [-]
C[C@@H]1O[C@@H](O[C@H]2C[C@@H](O)[C@]3(CO)[C@H]4[C@H](O)C[C@]5(C)[C@@H](C6=CC(=O)OC6)CC[C@]5(O)[C@@H]4CC[C@]3(O)C2)[C@H](O)[C@H](O)[C@H]1O [OUABAIN] | is not a substrate [-]
C[C@]12CC[C@H](OS(=O)(=O)O)CC1=CC[C@@H]1[C@@H]2CC[C@]2(C)C(=O)CC[C@@H]12 [PRASTERONE SULFURIC ACID] | is not a substrate [-]
O=C1OC(c2ccc(O)c(S(=O)(=O)[O-])c2)(c2ccc(O)c(S(=O)(=O)[O-])c2)c2c(Br)c(Br)c(Br)c(Br)c21.[Na+].[Na+] [SULFOBROMOPHTHALEIN SODIUM] | substrate [+]

Substrate: N[C@@H](Cc1cc(I)c(Oc2cc(I)c(O)c(I)c2)c(I)c1)C(=O)O
Assay: as §1
Assay type: functional, cell-based
Conditions: not given

Molecule | Km [µM]
Solute carrier organic anion transporter family member 1C1 (Homo sapiens) (protein) MDTSSKENIQLFCKTSVQPVGRPSFKTEYPSSEEKQPCCGELKVFLCALSFVYFAKALAEGYLKSTITQIERRFDIPSSLVGVIDGSFEIGNLLVITFVSYFGAKLHRPKIIGAGCVIMGVGTLLIAMPQFFMEQYKYERYSPSSNSTLSISPCLLESSSQLPVSVMEKSKSKISNECEVDTSSSMWIYVFLGNLLRGIGETPIQPLGIAYLDDFASEDNAAFYIGCVQTVAIIGPIFGFLLGSLCAKLYVDIGFVNLDHITITPKDPQWVGAWWLGYLIAGIISLLAAVPFWYLPKSLPRSQSREDSNSSSEKSKFIIDDHTDYQTPQGENAKIMEMARDFLPSLKNLFGNPVYFLYLCTSTVQFNSLFGMVTYKPKYIEQQYGQSSSRANFVIGLINIPAVALGIFSGGIVMKKFRISVCGAAKLYLGSSVFGYLLFLSLFALGCENSDVAGLTVSYQGTKPVSYHERALFSDCNSRCKCSETKWEPMCGENGITYVSACLAGCQTSNRSGKNIIFYNCTCVGIAASKSGNSSGIVGRCQKDNGCPQMFLYFLVISVITSYTLSLGGIPGYILLLRCIKPQLKSFALGIYTLAIRVLAGIPAPVYFGVLIDTSCLKWGFKRCGSRGSCRLYDSNVFRHIYLGLTVILGTVSILLSIAVLFILKKNYVSKHRSFITKRERTMVSTRFQKENYTTSDHLLQPNYWPGKETQL | 0.0904

Substrate: N[C@@H](Cc1ccc(Oc2cc(I)c(O)c(I)c2)c(I)c1)C(=O)O
Assay: as §1
Assay type: functional, cell-based
Conditions: not given

Molecule | Km [µM]
Solute carrier organic anion transporter family member 1C1 (Homo sapiens) (protein) MDTSSKENIQLFCKTSVQPVGRPSFKTEYPSSEEKQPCCGELKVFLCALSFVYFAKALAEGYLKSTITQIERRFDIPSSLVGVIDGSFEIGNLLVITFVSYFGAKLHRPKIIGAGCVIMGVGTLLIAMPQFFMEQYKYERYSPSSNSTLSISPCLLESSSQLPVSVMEKSKSKISNECEVDTSSSMWIYVFLGNLLRGIGETPIQPLGIAYLDDFASEDNAAFYIGCVQTVAIIGPIFGFLLGSLCAKLYVDIGFVNLDHITITPKDPQWVGAWWLGYLIAGIISLLAAVPFWYLPKSLPRSQSREDSNSSSEKSKFIIDDHTDYQTPQGENAKIMEMARDFLPSLKNLFGNPVYFLYLCTSTVQFNSLFGMVTYKPKYIEQQYGQSSSRANFVIGLINIPAVALGIFSGGIVMKKFRISVCGAAKLYLGSSVFGYLLFLSLFALGCENSDVAGLTVSYQGTKPVSYHERALFSDCNSRCKCSETKWEPMCGENGITYVSACLAGCQTSNRSGKNIIFYNCTCVGIAASKSGNSSGIVGRCQKDNGCPQMFLYFLVISVITSYTLSLGGIPGYILLLRCIKPQLKSFALGIYTLAIRVLAGIPAPVYFGVLIDTSCLKWGFKRCGSRGSCRLYDSNVFRHIYLGLTVILGTVSILLSIAVLFILKKNYVSKHRSFITKRERTMVSTRFQKENYTTSDHLLQPNYWPGKETQL | 0.128

From ChEMBL document CHEMBL2073873, “Identification of a novel human organic anion transporting polypeptide as a high affinity thyroxine transporter” (Mol Endocrinol, 2002)
